The values that follow come from patent US8637237B2, “Methods, compositions, and systems for the identification of species-specific or developmental stage-specific insecticides” (The University of North Carolina at Greensboro, priority 2003, dated 2014).

The experiment has as its target T1, EcRB1/USP (Drosophila melanogaster, UniProt P34021).
T1 construct: The plasmid encodes a version of EcRB1 that includes 878 amino acids, and deletes the F domain; expressed in transfected cells; host or cells: CHO
T1 sequence (P34021 1-878): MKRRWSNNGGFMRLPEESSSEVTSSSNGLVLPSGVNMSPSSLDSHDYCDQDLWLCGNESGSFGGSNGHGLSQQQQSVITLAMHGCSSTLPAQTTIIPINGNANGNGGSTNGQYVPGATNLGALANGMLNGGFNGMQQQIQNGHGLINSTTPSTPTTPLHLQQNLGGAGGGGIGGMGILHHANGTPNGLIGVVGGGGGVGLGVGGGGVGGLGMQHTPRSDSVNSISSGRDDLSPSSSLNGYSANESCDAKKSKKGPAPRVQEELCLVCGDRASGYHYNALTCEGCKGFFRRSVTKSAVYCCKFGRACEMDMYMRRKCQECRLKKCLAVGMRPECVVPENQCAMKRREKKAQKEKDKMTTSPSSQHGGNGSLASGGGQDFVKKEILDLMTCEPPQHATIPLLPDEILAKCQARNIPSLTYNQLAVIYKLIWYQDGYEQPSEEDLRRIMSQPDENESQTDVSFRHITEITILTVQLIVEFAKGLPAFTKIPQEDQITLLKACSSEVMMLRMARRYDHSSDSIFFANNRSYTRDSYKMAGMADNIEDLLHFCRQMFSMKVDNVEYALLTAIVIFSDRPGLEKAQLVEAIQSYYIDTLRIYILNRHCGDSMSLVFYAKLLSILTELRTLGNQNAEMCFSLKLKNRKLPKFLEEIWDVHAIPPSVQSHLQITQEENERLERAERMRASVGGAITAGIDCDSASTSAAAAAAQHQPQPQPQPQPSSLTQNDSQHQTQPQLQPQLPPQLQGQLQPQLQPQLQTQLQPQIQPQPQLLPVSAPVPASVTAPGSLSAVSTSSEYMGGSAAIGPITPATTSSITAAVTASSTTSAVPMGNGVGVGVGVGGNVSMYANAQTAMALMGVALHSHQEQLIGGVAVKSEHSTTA
T1 sequence (O76202 192-472 partner): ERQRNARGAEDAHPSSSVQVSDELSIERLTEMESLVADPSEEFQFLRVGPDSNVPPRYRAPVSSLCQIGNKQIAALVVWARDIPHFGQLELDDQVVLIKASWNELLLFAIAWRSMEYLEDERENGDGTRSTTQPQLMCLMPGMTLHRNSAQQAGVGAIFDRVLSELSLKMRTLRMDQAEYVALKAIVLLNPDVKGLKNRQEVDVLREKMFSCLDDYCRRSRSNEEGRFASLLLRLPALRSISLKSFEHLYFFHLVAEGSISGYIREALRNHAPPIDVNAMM
As to the kind of experiment: EcRB1 isoform with USP (VP16CfUSP), (EcRE)5-ΔMTV-LUC in CHO cells. Type of experiment: cell-based. As to the method:
These experiments employed a mammalian cell culture system using Chinese hamster ovary cells (CHO) to evaluate the transcriptional function of Drosophila melanogaster EcR and USP using methods described previously (U.S. Patent Application Publication No: 2005/0049230; Henrich et al, 2003). Cells were seeded in 6-well polypropylene culture plates (Falcon) with 10^5 cells per well on the day prior to transfection. Transfection was subsequently performed using either calcium phosphate (Kitareewan et al., 1996, Mol. Biol. Cell, 7:1153-1196) or a GenePorter reagent (Gene Therapy Systems, Inc; San Diego, Calif.) following manufacturer's protocols. Each well received 1.25 μg of (EcRE)5-ΔMTV-CAT (five copies of the hsp27 EcRE inserted into an mouse mammary tumor virus (MTV) promoter upstream of the chloramphenicol acetyltransferase (CAT) gene) or (EcRE)5-ΔMTV-LUC (the same promoter attached to firefly luciferase), 1.25 μg of pCH111 (SV40 early promoter linked to the β-galactosidase gene) to normalize CAT activity, and 0.25 μg of each expression plasmid (EcR, FXR, RXR, USP) that was tested. The cells were incubated with plasmid DNA for seven hours and then washed with 1×PBS. Muristerone A (murA; Alexis Biochemicals) or 20-hydroxyecdysone (20E; Sigma) dissolved in ethanol to a concentration of 10 mM was diluted as necessary to the final assay concentration (FAC) in 2 ml of fresh incubation medium that was then applied to the cells. Similarly, JHIII (Sigma) was dissolved in dimethyl sulfoxide (DMSO) to a concentration of […] and diluted into the incubation medium to its final assay concentration (20, 40, 80, 160 μM). […] A corresponding volume of ethanol and DMSO were added to control cells for all experiments. For all experiments, the cells were allowed to incubate with the medium for 24 hours before collection and cell lysates were prepared by described methods (Kitareewan et al., 1996). Both β-galactosidase and CAT reporter activity were measured based on previously used methods (Kitareewan et al, 1996). Luciferase assays using luciferrin followed the specifications of the manufacturer.
Transcriptional activity, measured as ^14C-chloramphenicol counts (for measuring CAT activity) or relative luciferase activity (RLU) was quantified for each cell lysate. The counts were then normalized by adjusting for differences in β-galactosidase activity, since β-galactosidase expression is controlled by a constitutive promoter and provides an estimate of cell mass. Data were normalized as fold-induction based on differences in reporter gene activity between hormonally treated and control cells.

As for `CC(C)(O)CC[C@@H](O)[C@](C)(O)[C@H]1CC[C@@]2(O)C3=CC(=O)[C@@H]4C[C@@H](O)[C@@H](O)C[C@]4(C)[C@H]3CC[C@]12C` [20E, 20-hydroxyecdysone], the “transcriptional response to 20E” value (EcRB1 + VP16CfUSP, 10 μM 20E) is “consistent and discernible transcriptional response”. Moreover, for the setting “EcRB1/USP, 10 μM 20E”, the “20E (inducibility)” value was “+ ((+) designates a change in transcriptional level that exceeds 2.5-fold)”.

In the case of `COC(=O)/C=C(\C)CC/C=C(\C)CC[C@H]1OC1(C)C` [JHIII, juvenile hormone III], the “potentiation of murA response by JHIII” value (EcRB1 + VP16CfUSP, 80 μM JHIII with 0.1 μM murA) is “potentiated”. Further, the “MurA + JHIII (JHIII potentiation)” value (EcRB1/USP, 0.1 μM murA + 80 μM JHIII) was “+ ((+) indicates observed potentiation that exceeds 2-fold above the levels observed with ecdysteroid alone)”.

Regarding `CC(C)CC[C@@H](O)[C@](C)(O)[C@H]1CC[C@@]2(O)C3=CC(=O)[C@]4(O)C[C@@H](O)[C@@H](O)C[C@]4(C)[C@H]3[C@H](O)C[C@]12C` [murA, muristerone A], the “induction by murA” value (EcRB1 + VP16CfUSP, 1 μM murA) was 30-40 fold. The “MurA (inducibility)” value (EcRB1/USP, 0.1 μM murA) is reported as “+ ((+) designates a change in transcriptional level that exceeds 2.5-fold)”.
